In brackets after ≈: the same amount, converted by molar mass. Like-named read-outs stand apart in the source and are kept apart here.
Key:
[1] = system: Staphylococcus aureus X1.1; assay: MIC, standard agar-dilution assay; format: cell-based; details: Staphylococcus aureus, X1.1
Method in brief: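 A standard agar-dilution assay was used to test compounds against the Staphylococcus aureus isolate X1.1. Bacterial growth on agar with different compound concentrations was assessed, and the minimum inhibitory concentration was recorded in ug/mL.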

[2] = system: Streptococcus pyogenes 9960; assay: MIC, standard agar-dilution assay; format: cell-based; details: agar-dilution, Streptococcus 9960, read-out: MIC
Method: (§1) Certain of the derivatives are active against some gram-negative bacteria, such as Pasteurella species. The MIC's in Table II were determined by standard agar-dilution assays. The MIC's in Table III were obtained using a conventional broth-dilution microtiter test.

Escherichia coli TEM = assay: MIC, standard agar-dilution assay; format: cell-based
Method in brief: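 Antibacterial activity toward the gram-negative organism Escherichia coli was assessed by conventional agar dilution. The MIC, reported in ug/mL, is the minimum compound concentration on agar that prevents growth.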

Escherichia coli EC14 = assay: MIC, standard agar-dilution assay; format: cell-based; details: agar-dilution; Escherichia coli EC14; read-out: MIC
Method: as §1

[3] = system: Staphylococcus aureus V41; assay: MIC, standard agar-dilution assay; format: cell-based
Method: as §1

[4] = system: Klebsiella pneumoniae X26; assay: MIC, standard agar-dilution assay; format: cell-based; details: agar-dilution; Klebsiella pneumoniae X26; read-out: MIC
Method in brief: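 Two formats were used. Broth dilution in microtiter plates served for Pasteurella and Mycoplasma, while agar dilution served for Klebsiella.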

[5] = system: Klebsiella pneumoniae KAE; assay: MIC, standard agar-dilution assay; format: cell-based; details: agar-dilution; Klebsiella pneumoniae KAE; read-out: MIC
Method in brief: (§2)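 Method depends on organism. Klebsiella pneumoniae was assayed on agar. Pasteurella spp. and Mycoplasma gallisepticum were assayed in broth microtiter dilution.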

[6] = system: Streptococcus pneumoniae Park I; assay: MIC, standard agar-dilution assay; format: cell-based
Method: as §1

[7] = system: Streptococcus pyogenes C203; assay: MIC, standard agar-dilution assay; format: cell-based; details: agar-dilution; Streptococcus pyogenes C203; read-out: MIC
Method: as §1

[8] = system: Streptococcus Group D X66; assay: MIC, standard agar-dilution assay; format: cell-based
Method: as §1

[9] = system: Staphylococcus aureus X400; assay: MIC, standard agar-dilution assay; format: cell-based
Method: (§3) The MIC's in Table II were determined by standard agar-dilution assays. The MIC's in Table III were obtained using a conventional broth-dilution microtiter test.

[10] = system: Haemophilus influenzae 76; assay: MIC, standard agar-dilution assay; format: cell-based; details: Haemophilus influenzae, 76
Method: as §3

[11] = system: Staphylococcus epidermidis EPI2; assay: MIC, standard agar-dilution assay; format: cell-based
Method: as §3

[12] = system: Haemophilus influenzae C.L.; assay: MIC, standard agar-dilution assay; format: cell-based; details: agar-dilution; Haemophilus influenzae C.L., Ampicillin-sensitive strain; read-out: MIC
Method: as §3

Pasteurella multocida = assay: Pasteurella infection in one-day old chicks; format: in vivo; details: subcutaneous, 30 mg/kg × 2, 1 and 4 hours post-challenge
Method: Certain of the formula 1 compounds of this invention have also shown in vivo activity against infections induced by gram-negative bacteria. Table V summarizes the results of tests in which illustrative compounds were evaluated against a Pasteurella infection in one-day old chicks. The compounds were administered parenterally after challenge of the chicks with Pasteurella multocida (0.1 ml of a 10^-4 dilution of a twenty-hour tryptose broth culture of an avian P. multocida given subcutaneously). In these tests, unless indicated otherwise, all non-medicated infected chicks died within 24 hours of Pasteurella challenge. In the tests summarized in Table V, the compounds were administered by subcutaneous injection at a dosage of 30 mg/kg, 1 and 4 hours post-challenge of the chicks with P. multocida.

[13] = system: Streptococcus pyogenes C203; assay: Protection of mice experimentally infected with S. pyogenes C203; format: in vivo
Method: Some of the derivatives of this invention have shown in vivo antimicrobial activity against experimentally-induced infections in laboratory animals. When two doses of test compound were administered to mice experimentally infected with S. pyogenes C203, the activity observed was measured as an ED50 value [effective dose in mg/kg to protect 50% of the test animals: see Warren Wick, et al., J. Bacteriol. 81, 233-235 (1961)].

[14] = system: Staphylococcus aureus S13E; assay: microbe, parasite or virus in culture; format: cell-based
Method: as §3

[15] = system: Staphylococcus epidermidis EPI1; assay: microbe, parasite or virus in culture; format: cell-based; details: Staphylococcus epidermidis, EPI1
Method: as §3

Mycoplasma hyorhinis = assay: MIC, conventional broth-dilution microtiter test; format: cell-based; details: broth-dilution microtiter; Mycoplasma hyorhinis; read-out: MIC
Method in brief: (§4)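 Agar plates containing graded compound levels gave the Klebsiella value. Graded broth dilutions in microtiter plates gave the Pasteurella and Mycoplasma values.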

[16] = system: Mycoplasma gallisepticum 41313; assay: MIC, conventional broth-dilution microtiter test; format: cell-based; details: Mycoplasmoides gallisepticum; broth-dilution microtiter; Mycoplasma gallisepticum 41313, Resistant strain; read-out: MIC
Method in brief: as §2

[17] = system: Pasteurella multocida 22A; assay: MIC, conventional broth-dilution microtiter test; format: cell-based; details: Pasteurella multocida, 22A
Method in brief: as §2

[18] = system: Pasteurella hemolytica 41D; assay: MIC, conventional broth-dilution microtiter test; format: cell-based
Method in brief: as §2

Streptococcus sp. 80 = assay: MIC, conventional broth-dilution microtiter test; format: cell-based
Method: as §1

[19] = system: Pasteurella multocida 17E; assay: MIC, conventional broth-dilution microtiter test; format: cell-based
Method in brief: as §2

[20] = system: Pasteurella multocida 68C; assay: MIC, conventional broth-dilution microtiter test; format: cell-based; details: Pasteurella multocida, 68C
Method in brief: as §2

Mycoplasma synoviae = assay: MIC, conventional broth-dilution microtiter test; format: cell-based; details: Mycoplasmopsis synoviae
Method in brief: as §4

[21] = system: Pasteurella hemolytica 23C; assay: MIC, conventional broth-dilution microtiter test; format: cell-based
Method in brief: as §2

Mycoplasma gallisepticum = assay: MIC, conventional broth-dilution microtiter test; format: cell-based; details: Mycoplasmoides gallisepticum
Method in brief: as §2

Staphylococcus aureus = assay: MIC, conventional broth-dilution microtiter test; format: cell-based
Method: as §1

[22] = system: Mycoplasma gallisepticum 34159; assay: MIC, conventional broth-dilution microtiter test; format: cell-based; details: Mycoplasmoides gallisepticum; broth-dilution microtiter; Mycoplasma gallisepticum 34159, Resistant strain; read-out: MIC
Method in brief: as §2

[23] = system: Pasteurella multocida 60A; assay: MIC, conventional broth-dilution microtiter test; format: cell-based; details: Pasteurella multocida, 60A
Method in brief: as §2

[24] = system: Pasteurella hemolytica 22C; assay: MIC, conventional broth-dilution microtiter test; format: cell-based
Method in brief: as §2

[25] = system: Pasteurella multocida 40G; assay: MIC, conventional broth-dilution microtiter test; format: cell-based; details: Pasteurella multocida, 40G
Method in brief: as §2

[26] = C203, sc, mice, subcutaneous, mg/kg × 2, doses given 1 and 4 hours postinfection, read-out: ED50 Subcutaneous

SMILES: CCC1CC(C)C(=O)C=CC(C)=CC(CN2CCCCCCC2)C(CC)OC(=O)CC(O)C(C)C1OC1OC(C)C(O)C(N(C)C)C1O (centres unmarked) [Compound 43, 23-Octahydroazocin-1-yl-20,23-dideoxy-20-dihydro-OMT]
- MIC [1]: 0.5 µg/mL (≈ 0.736 µM)
- MIC [2]: 2 µg/mL (≈ 2.95 µM)
- MIC (Escherichia coli TEM; Escherichia coli): 16 µg/mL (≈ 23.6 µM)
- MIC (Escherichia coli EC14): > 128 µg/mL
- MIC ([3]; Staphylococcus aureus, V41): 0.5 µg/mL (≈ 0.736 µM)
- MIC [4]: 4 µg/mL (≈ 5.89 µM)
- MIC [5]: > 128 µg/mL
- MIC ([6]; Streptococcus pneumoniae): 1 µg/mL (≈ 1.47 µM)
- MIC [7]: 0.12 µg/mL (≈ 0.177 µM)
- MIC [8]: 1 µg/mL (≈ 1.47 µM)
- MIC ([9]; Staphylococcus aureus, X400): 1 µg/mL (≈ 1.47 µM)
- MIC [10]: 8 µg/mL (≈ 11.8 µM)
- MIC ([11]; Staphylococcus epidermidis, EPI2): 0.25 µg/mL (≈ 0.368 µM)
- MIC [12]: 4 µg/mL (≈ 5.89 µM)
- Number of Deaths/Number Treated (Pasteurella multocida): 8/10
- ED50 ([13]; C203, po, read-out: ED50 Oral): > 100 mg/kg
- ED50 [13, 26]: > 12.5 mg/kg
- MIC [14]: 0.5 µg/mL (≈ 0.736 µM)
- MIC [15]: 0.5 µg/mL (≈ 0.736 µM)
- MIC (Mycoplasma hyorhinis): 50 µg/mL (≈ 73.6 µM)
- MIC [16]: > 50 µg/mL
- MIC [17]: 1.56 µg/mL (≈ 2.3 µM)
- MIC ([18]; Pasteurella, 41D): 1.56 µg/mL (≈ 2.3 µM)
- MIC (Streptococcus sp. 80; Streptococcus, SP.80): 0.78 µg/mL (≈ 1.15 µM)
- MIC ([19]; Pasteurella multocida, 17E): 0.78 µg/mL (≈ 1.15 µM)
- MIC [20]: 1.56 µg/mL (≈ 2.3 µM)
- MIC (Mycoplasma synoviae; broth-dilution microtiter, Mycoplasma synoviae, read-out: MIC): > 50 µg/mL
- MIC ([21]; Pasteurella, 23C): 1.56 µg/mL (≈ 2.3 µM)
- MIC (Mycoplasma gallisepticum): 0.78 µg/mL (≈ 1.15 µM)
- MIC (Staphylococcus aureus; broth-dilution microtiter, read-out: MIC): 0.39 µg/mL (≈ 0.574 µM)
- MIC [22]: > 50 µg/mL
- MIC [23]: 0.78 µg/mL (≈ 1.15 µM)
- MIC ([24]; Pasteurella, 22C): 0.78 µg/mL (≈ 1.15 µM)
- MIC [25]: 1.56 µg/mL (≈ 2.3 µM)

SMILES: CCC1CC(C)C(=O)C=CC(C)=CC(CN2CCC(O)CC2)C(CC)OC(=O)CC(O)C(C)C1OC1OC(C)C(O)C(N(C)C)C1O (centres unmarked) [Compound 45, 23-(4-Hydroxypiperidino)-20,23-dideoxy-20-dihydro-OMT]
- MIC [1]: 8 µg/mL (≈ 12 µM)
- MIC [2]: 128 µg/mL (≈ 192 µM)
- MIC (Escherichia coli TEM; agar-dilution, Escherichia coli TEM, read-out: MIC): > 128 µg/mL
- MIC (Escherichia coli EC14): > 128 µg/mL
- MIC ([3]; agar-dilution, Staphylococcus aureus V41, Penicillin-resistant strain, read-out: MIC): 16 µg/mL (≈ 24 µM)
- MIC [4]: 16 µg/mL (≈ 24 µM)
- MIC [5]: > 128 µg/mL
- MIC ([6]; agar-dilution, Streptococcus pneumoniae Park I, read-out: MIC): 2 µg/mL (≈ 3 µM)
- MIC [7]: 32 µg/mL (≈ 48 µM)
- MIC [8]: 64 µg/mL (≈ 96 µM)
- MIC ([9]; agar-dilution, Staphylococcus aureus X400, Methicillin-resistant strain, read-out: MIC): 32 µg/mL (≈ 48 µM)
- MIC [10]: 64 µg/mL (≈ 96 µM)
- MIC ([11]; agar-dilution, Staphylococcus epidermidis EPI2, read-out: MIC): 2 µg/mL (≈ 3 µM)
- MIC [12]: 32 µg/mL (≈ 48 µM)
- Number of Deaths/Number Treated (Pasteurella multocida): 10/10
- ED50 ([13]; C203, po, read-out: ED50 Oral): > 100 mg/kg
- ED50 [13, 26]: > 10 mg/kg
- MIC [14]: 8 µg/mL (≈ 12 µM)
- MIC [15]: 8 µg/mL (≈ 12 µM)
- MIC (Mycoplasma hyorhinis): > 50 µg/mL
- MIC [16]: 50 µg/mL (≈ 75 µM)
- MIC [17]: 12.5 µg/mL (≈ 18.7 µM)
- MIC ([18]; broth-dilution microtiter, Pasteurella hemolytica 41D, read-out: MIC): 25 µg/mL (≈ 37.5 µM)
- MIC (Streptococcus sp. 80; broth-dilution microtiter, Streptococcus sp. 80, read-out: MIC): 1.56 µg/mL (≈ 2.34 µM)
- MIC ([19]; broth-dilution microtiter, Pasteurella multocida 17E, Bovine isolate, read-out: MIC): 25 µg/mL (≈ 37.5 µM)
- MIC [20]: 12.5 µg/mL (≈ 18.7 µM)
- MIC (Mycoplasma synoviae): 12.5 µg/mL (≈ 18.7 µM)
- MIC ([21]; broth-dilution microtiter, Pasteurella hemolytica 23C, read-out: MIC): 25 µg/mL (≈ 37.5 µM)
- MIC (Mycoplasma gallisepticum; broth-dilution microtiter, Mycoplasma gallisepticum, read-out: MIC): 6.25 µg/mL (≈ 9.37 µM)
- MIC (Staphylococcus aureus): 12.5 µg/mL (≈ 18.7 µM)
- MIC [22]: > 50 µg/mL
- MIC [23]: 12.5 µg/mL (≈ 18.7 µM)
- MIC ([24]; broth-dilution microtiter, Pasteurella hemolytica 22C, read-out: MIC): 25 µg/mL (≈ 37.5 µM)
- MIC [25]: 12.5 µg/mL (≈ 18.7 µM)

Reference: patent US4468511A, “C-20- And C-23-Modified macrolide derivatives” (Eli Lilly and Company, priority 1983, dated 1984)
